From patent US20040259909A1, “Treatment of fibromyalgia syndrome” (priority 2001, published 2004)
Where two headings read alike, the source gives them in different places.

How the values were obtained:
[1] = Animal models of memory and cognition; conditions: in vivo
Text: In a first embodiment of the invention a suitable α7 agonist is spiro[1-azabicyclo[2.2.2]octane-3,5′-oxazolidine-2′-one (Compound 1, Table 1). […] This compound is disclosed in U.S. Pat. No. 5,902,814 the disclosure of which is incorporated herein in its entirety by reference. This compound is active in animal models of memory and cognition.

nAChR α7 = nAChR α7 (Rattus norvegicus, UniProt Q05941); experiment: Oocyte functional assay, two-electrode voltage clamp (Test C, FIG. 1); conditions: in words; currents in oocytes expressing nAChR α7 (FIG. 1)
Experimental: Xenopus oocytes Xenopus laevis frogs (Xenopus I, Kalamazoo, Mich.) were anesthetized using 0.15% tricaine. Oocytes were removed to OR2 solution: (in mM) 82 NaCl, 2.5 KCl, 5 HEPES, 1.5 NaH2PO4, 1 MgCl2, 0.1 EDTA, pH 7.4. The oocytes were defolliculated by incubation in 25 mL OR2 containing 0.2% collagenase 1A (SIGMA) two times for 60 min on a platform vibrating at 1 Hz and stored in Leibovitz's L-15 medium. Oocytes were injected the following day. Leibovitz's L-15 medium contained 50 μg/mL gentomycin, 10 units/mL penicillin, and 10 μg/mL streptomycin.
Preparation and injection of cRNA Rat nAChR α7 was cloned in-house (Luhowskyj). Non-polyadenylated cRNA was prepared from cDNA using mMessage mMachine SP6 (Ambion) according to the manufacturer's instructions.
Recording The external recording solution consisted of (in mM) 90 NaCl, 1 KCl, 1 MgCl2, 1 BaCl2, 5 HEPES, pH 7.4. […] Oocytes were impaled with two electrodes of 1-2 MΩ tip resistance when filled with 3M KCl. Recordings were begun when membrane potential became stable at potentials negative to −20 mV. Membrane potential was clamped at −80 mV unless otherwise noted. ACh, (−) was purchased from SIGMA.
Calculation of current amplitude and curve fitting Current amplitude was measured from baseline to peak. EC50's, maximal effect, and Hill slopes were estimated by fitting the data to the logistic equation using GraphPad Prism (GraphPad Software, Inc. San Diego, Calif.)
Data are fit by the logistic equation.

α7 nAChR subtype = target: T1, α7 nAChR subtype (Rattus norvegicus, UniProt Q05941); experiment: 125I-α-Bungarotoxin (BTX) binding to rat hippocampal membranes (Test A)
T1 construct: Rat hippocampi were homogenized in 20 volumes of cold homogenisation buffer; from tissue; host or cells: rat hippocampus membranes
Experimental: Test A—Assay for Affinity at α7 nAChR Subtype
Rat hippocampi were homogenized in 20 volumes of cold homogenisation buffer (HB): (in mM): tris(hydroxymethyl)aminomethane 50; MgCl2 1; NaCl 120; KCl 5: pH 7.4). The homogenate was centrifuged for 5 min at 1000 g, the supernatant was saved and the pellet re-extracted. The pooled supernatants were centrifuged for 20 min at 12000 g, washed, and re-suspended in HB.
(§1) Ki values were estimated using the general Cheng-Prusoff equation (A):
(§2) where a value of n=1 was used whenever nH<1.5 and a value of n−2 was used when nH≧1.5. Samples were assayed in triplicate and were typically ±5%. Ki values were determined using six or more drug concentrations.

5-HT3 = target: T2, 5-HT3 (Rattus norvegicus, UniProt P35563); experiment: [3H]zacopride binding to rat small-bowel muscularis membranes (Test B); conditions: 0.5 nM [3H]zacopride, read-out: Binding Affinity (Ki/nM) 5HT3
T2 construct: using rat small-bowel muscularis membranes suspended in 50 mM Tris; from tissue; host or cells: rat small-bowel muscularis membranes
T2 sequence (P35563 24-483): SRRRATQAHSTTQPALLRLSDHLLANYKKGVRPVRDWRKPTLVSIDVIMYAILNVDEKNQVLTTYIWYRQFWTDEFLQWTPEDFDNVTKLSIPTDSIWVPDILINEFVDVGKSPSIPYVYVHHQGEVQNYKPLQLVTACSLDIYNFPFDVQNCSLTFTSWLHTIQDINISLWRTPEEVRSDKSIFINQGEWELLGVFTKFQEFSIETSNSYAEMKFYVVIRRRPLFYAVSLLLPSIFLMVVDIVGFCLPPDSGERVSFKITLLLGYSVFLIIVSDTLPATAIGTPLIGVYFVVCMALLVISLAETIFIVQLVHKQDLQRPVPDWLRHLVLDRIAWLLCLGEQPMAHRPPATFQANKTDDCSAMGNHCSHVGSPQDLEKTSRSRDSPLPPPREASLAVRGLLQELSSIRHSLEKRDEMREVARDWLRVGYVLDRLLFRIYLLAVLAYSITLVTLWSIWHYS
Experimental: Test B—Assay for Affinity to the 5-HT3 nAChR Subtype
[^3]zacoipride binding. […] Incubation was continued for one hour.
Binding Data Analysis for Tests A and B
as §1, §2

[2] = complex spatial memory task, animal models; cited from earlier work
[3] = fibromyalgia patients treated with tropisetron; cited from earlier work

Sequence of nAChR α7 (Q05941 23-502): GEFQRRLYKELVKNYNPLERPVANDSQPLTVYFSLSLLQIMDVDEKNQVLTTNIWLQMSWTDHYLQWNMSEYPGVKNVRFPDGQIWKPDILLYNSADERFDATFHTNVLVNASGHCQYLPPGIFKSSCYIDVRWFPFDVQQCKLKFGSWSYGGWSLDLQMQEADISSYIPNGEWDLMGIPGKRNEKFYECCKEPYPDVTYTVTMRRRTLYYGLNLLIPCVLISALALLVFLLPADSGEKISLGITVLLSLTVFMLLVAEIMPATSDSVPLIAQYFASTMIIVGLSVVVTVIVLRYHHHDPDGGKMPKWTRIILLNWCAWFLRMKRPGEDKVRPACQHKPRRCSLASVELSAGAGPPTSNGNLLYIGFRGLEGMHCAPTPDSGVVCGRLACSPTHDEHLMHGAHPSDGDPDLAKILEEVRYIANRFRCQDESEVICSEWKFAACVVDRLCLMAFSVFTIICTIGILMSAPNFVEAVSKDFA
T1 sequence (Q05941 23-502): as above

With `O=C1NC[C@]2(CN3CCC2CC3)O1` [Compound 1, spiro[1-azabicyclo[2.2.2]octane-3,5′-oxazolidine-2′-one] the “activity in animal models of memory and cognition” value [1] was “active” and the “activity at the α7 receptor” value (nAChR α7) was “selective α7 agonist”.
Compound `c1cnc2c(c1)C[C@@]1(CN3CCC1CC3)O2` [Compound 2, spiro[1-azabicyclo[2.2.2]octane-3,2′-(3′H)-furo[2,3-b]pyridine]] has a Ki (α7 nAChR subtype; [125I]α-BTX 5 nM, rat hippocampal membranes, read-out: Binding Affinity (Ki/nM) α7) of 14 nM.
Compound `O=C(NC1CN2CCC1CC2)c1cc(-c2ccccc2)cs1` (stereo not shown) [Compound 3, N-(1-azabicyclo[2.2.2]oct-3-yl)(4-phenylthiophene-2-carboxamide)] has a Ki (α7 nAChR subtype) of 1.6 nM and a Ki (5-HT3) of 20000 nM.
For `Cc1nccn1CC1CCc2c(c3ccccc3n2C)C1=O` (stereo not shown) [ondansetron], the “activity at the α7 receptor” value (nAChR α7) is listed as “lacked activity” and the “antagonism of spatial navigation impairment” value [2] is listed as “not”.
In the case of `CN1[C@@H]2CC[C@H]1C[C@@H](OC(=O)c1c[nH]c3ccccc13)C2` [tropisetron], the “reduction in fibromyalgia symptoms” value [3] is listed as “statistically significant reduction in their symptoms”, the “activity at the α7 receptor” value (nAChR α7) is listed as “potent and selective partial agonist” and the “antagonism of spatial navigation impairment” value [2] is listed as “antagonize spatial navigation impairment”.
